According to ChEMBL document CHEMBL2062491, “Absolute structures of monoterpenoids with a δ-lactone-containing skeleton from Ligularia hodgsonii” (J Nat Prod, 2012):

Tests used:
Format in all cases: functional, cell-based
[1] = test system: HL-60; assay: Cytotoxicity against human HL60 cells after 48 hrs by SRB assay
[2] = test system: HeLa; assay: Cytotoxicity against human HeLa cells after 48 hrs by SRB assay
[3] = test system: SMMC-7721; assay: Cytotoxicity against human SMMC7721 cells after 48 hrs by SRB assay

Row | Compound | IC50 ([1]; hl-60) [µM] | IC50 ([2]; hela) [µM] | IC50 ([3]; smmc-7721) [µM] | IC50 ([1]; Homo sapiens, HL-60, 48 h, read-out: IC50) [µM] | IC50 ([2]; Homo sapiens, HeLa, 48 h, read-out: IC50) [µM] | IC50 ([3]; Homo sapiens, SMMC-7721, 48 h, read-out: IC50) [µM]
1 | COC(=O)[C@]1([C@H](C)Cl)C[C@@H](C)[C@@](C)(OC(C)=O)C(=O)O1 [LIGUHODGCINS A] | 141 | 171 | 156 |  |  | 
2 | COC(=O)[C@]1(C)OC(=O)[C@]2(C[C@H]1C)O[C@@H]2C [LIGUHODGCINS B] | 151 | 168 | 162 |  |  | 
3 | CO[C@@]12[C@H](COC(N)=O)C3=C(C(=O)C(C)=C(N)C3=O)N1C[C@@H]1N[C@@H]12 [MITOMYCIN] |  |  |  | 1.8 | 3.4 | 5.6
